From patent US20180193361A1, “GUT ANTI-INFLAMMATORY AGENTS FOR REGULATION OF HIGH BLOOD GLUCOSE LEVELS” (UNIVERSITY HEALTH NETWORK, priority 2015, published 2018)

Tests used:
NCD-fed C57BL/6 mice = assay: Metabolic studies, NCD or NCD 5-ASA; type: in vivo; conditions: NCD vs NCD 5-ASA 1500 mg/kg/day, 12 weeks
Protocol: Mice. Mice were fed either NCD (15 kcal % fat) or HFD (Research Diets, 60 kcal % fat, irradiated) starting at 6 weeks of age. […] Mice were maintained in a pathogen-free, temperature-controlled environment on a 12-hour light and dark cycle. All mice used in comparative studies were male, age-matched, and litter mates where possible. […] We measured body weights, GTTs, ITTs, serum insulin, and fat cell diameter as previously described (Winer et al., 2009a). All GTTs were performed with a 1.5 g/kg glucose i.p. injection unless indicated otherwise.

[1] = tested on: bowel and VAT immune cell populations; assay: Immune cell populations in NCD vs NCD 5-ASA mice; type: in vivo; conditions: bowels or VATs, NCD 5-ASA vs untreated NCD mice
Description: Isolation of bowel immune cells. For isolation of small intestine lamina propria immune cells, we used the protocol described by Fritz et al (Fritz et al., 2012), and processed approximately 10 cm from the distal end of the small intestine (jejunum and ileum). For the isolation of colonic lamina propria immune cells, we used the protocol described by Geddes et al (Geddes et al., 2011). Following lamina propria isolations, we passed immune cells through 70 μm strainers, and used them for flow cytometry.
We isolated VAT-associated immune cells as previously described (Winer et al., 2009a).
We stained single cell suspensions for 30 min on ice with commercial antibodies. Flow cytometry antibodies including CD45.2 (104), CD3 (145-2C11), CD4 (GK1.5), CD8 (53-6.7), CD25 (PC61), γδTcR (GL3), Foxp3 (150D), IL-17 (TC11-18H10.1), IFNγ XMG1.2), α4β7 (DATK32), CCR9 (CW-1.2), CD11b (M1/70), F4/80 (BM8), CD11c (N418), CD206 (C068C2), Gr-1 (RB6-8C5), IL-7Rα (A7R34), B220 (RA3-6B2), Thy1.2 (30-H12), NKp46 (29A1.4), and Sca-1 (D7) were purchased from Biolegend. Intracellular staining was performed using a Foxp3 staining buffer kit (eBioscience). We acquired data on a Fortessa flow cytometer (BD Biosciences) and analyzed it with FlowJo software (Tree Star). We gated ILCs as described (Kirchberger et al., 2013).

Rag1null mice = assay: Metabolic studies, Rag1null mice on HFD 5-ASA; type: in vivo; conditions: HFD vs HFD 5-ASA 1500 mg/kg/day, 8 weeks
Protocol: (§1) Mice. Mice were fed either NCD (15 kcal % fat) or HFD (Research Diets, 60 kcal % fat, irradiated) starting at 6 weeks of age. All studies were performed under the approval of Animal User Protocols by the Animal Care Committee at the University Health Network. Mice were maintained in a pathogen-free, temperature-controlled environment on a 12-hour light and dark cycle. All mice used in comparative studies were male, age-matched, and litter mates where possible.
(§2) We measured body weights, GTTs, ITTs, serum insulin, and fat cell diameter as previously described (Winer et al., 2009a). All GTTs were performed with a 1.5 g/kg glucose i.p. injection unless indicated otherwise.

[2] = tested on: C57BL/6 mice on HFD with established metabolic disease; assay: Treatment of established obesity-associated IR (switch to HFD 5-ASA after 8 weeks HFD); type: in vivo; conditions: 8 weeks HFD then 8 weeks HFD 5-ASA (1500 mg/kg/day) vs HFD only
Protocol: (§3) Mice. Mice were fed either NCD (15 kcal % fat) or HFD (Research Diets, 60 kcal % fat, irradiated) starting at 6 weeks of age. All studies were performed under the approval of Animal User Protocols by the Animal Care Committee at the University Health Network. Mice were maintained in a pathogen-free, temperature-controlled environment on a 12-hour light and dark cycle. All mice used in comparative studies were male, age-matched, and litter mates where possible. […] We confirmed T cell-specific floxing of the PPARγ gene in Lck-Cre+ PPARγfl/fl mice by qPCR with a minimum of at least 90% reduction in PPARγ expression. […] We measured body weights, GTTs, ITTs, serum insulin, and fat cell diameter as previously described (Winer et al., 2009a). All GTTs were performed with a 1.5 g/kg glucose i.p. injection unless indicated otherwise.

Beta7null mice = assay: Metabolic studies, Beta7null mice on HFD 5-ASA; type: in vivo; conditions: HFD vs HFD 5-ASA, 12 weeks
Protocol: as §1, §2

endotoxin, anti-LPS IgG = assay: Endotoxin and anti-LPS IgG measurements; type: in vivo, mice; conditions: HFD vs HFD 5-ASA, 14 weeks
Description: We measured endotoxin levels in the serum and adipose tissue using Pyrogene Recombinant C endotoxin detection fluorescence kit (Lonza Inc.). We measured mouse serum anti-LPS IgG antibody levels with a commercially available kit (Chrondrex Inc.).

[3] = tested on: intestinal epithelial barrier; assay: Gut permeability assay (FD4); type: in vivo, mice; conditions: HFD vs HFD 5-ASA, 12-16 weeks of diet, 4 hours after gavage
Protocol: We measured gut permeability in overnight fasted mice 4 hours after oral gavage with 0.4 mg/g of FITC-conjugated dextran (Sigma) as described (Dong et al., 2014).

HFD-fed C57BL/6 mice = assay: Metabolic studies, mice fed HFD or HFD 5-ASA from 6 weeks of age (preventative); type: in vivo
Protocol: as §3, with “otherwise. We fixed VAT, colons and small bowel ileums, from mice for 48 h in 10% buffered formalin before processing and hematoxylin/eosin staining. We enumerated crown-like structures (CLSs) in VAT by counting the number of adipocytes completely surrounded by immune cells identified on hematoxylin/eosin staining per 100× low power field. Analysis of histochemical stains was performed in a blinded fashion by two certified pathologists (S.W. and D.W.).” for “otherwise.”

[4] = HFD vs HFD 5-ASA 1500 mg/kg/day in diet, after 12-14 weeks
[5] = HFD vs HFD 5-ASA 1500 mg/kg/day, 14 weeks

## Nc1ccc(O)c(C(=O)O)c1 [5-ASA, 5-aminosalicylic acid]
NCD-fed C57BL/6 mice
  IR: little or no difference
  body weight: little or no difference
  fasting glucose: little or no difference
  glucose tolerance: little or no difference
[1]
  significant anti-inflammatory effects on immune cell populations: not seen
Rag1null mice
  IR: no effect
  body weight: no effect
  glucose tolerance: no effect
[2]
  body weight: did not change
  glucose tolerance: significant improvements
  insulin tolerance: significant improvements
Beta7null mice
  IR: no major effects
  glucose tolerance: no major effects
endotoxin, anti-LPS IgG
  IgG responses to LPS (serum anti-LPS IgG): markedly diminished
  VAT endotoxin levels: trended lower
  serum endotoxin: reduced
[3]
  intestinal epithelial barrier permeability (plasma FD4): significant improvements
HFD-fed C57BL/6 mice; 5-ASA dose range 150 mg/kg/day up to 1500 mg/kg/day in mice
  glucose tolerance: beneficial effects
HFD-fed C57BL/6 mice; HFD vs HFD 5-ASA 1500 mg/kg/day in diet
  liver steatosis: reduced
HFD-fed C57BL/6 mice; [4]
  VAT weight: no significant difference
  adipocyte size: no significant difference
  body weight: no significant difference
  number of crown-like structures in VAT: no significant difference
  organ weights: no significant difference
HFD-fed C57BL/6 mice; [5]
  fasting glucose: significant improvements
  fasting insulin: significant improvements
  glucose tolerance (GTT): significant improvements
  insulin tolerance (ITT): significant improvements
HFD-fed C57BL/6 mice; lower dose 150 mg/kg/day in HFD, 24 weeks
  effects on metabolic disease (GTT, ITT): beneficial effects
